The assay has as its target T1, human activated blood coagulation factor X (Homo sapiens, UniProt P00742).
T1 construct: disulfide-linked light and heavy chains of one precursor) added to human plasma with CaCl2; clotting time CT2
As to the kind of experiment: measuring the time for blood coagulation with the human activated blood coagulation factor X. It is filed as biochemical. As to conditions: dose of the test compound for 2-time prolongation of the coagulation time; human plasma, 37° C.; read-out: Test for measuring coagulation time with the human activated blood coagulation factor X, CT2.

Data on eleven compounds can be found in patent US6333320A, “Hexahydro-1,4-diazepine derivatives or salts thereof” (Yamanouchi Pharmaceutical Co., priority 1997, dated 2001).

Where a name gives a salt, the structure may show the parent alone.

T1 sequence (P00742 41-179): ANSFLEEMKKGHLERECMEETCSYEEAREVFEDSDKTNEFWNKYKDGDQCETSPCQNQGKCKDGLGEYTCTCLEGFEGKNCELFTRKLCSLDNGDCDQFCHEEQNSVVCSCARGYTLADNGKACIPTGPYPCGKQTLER
T1 sequence (P00742 235-488): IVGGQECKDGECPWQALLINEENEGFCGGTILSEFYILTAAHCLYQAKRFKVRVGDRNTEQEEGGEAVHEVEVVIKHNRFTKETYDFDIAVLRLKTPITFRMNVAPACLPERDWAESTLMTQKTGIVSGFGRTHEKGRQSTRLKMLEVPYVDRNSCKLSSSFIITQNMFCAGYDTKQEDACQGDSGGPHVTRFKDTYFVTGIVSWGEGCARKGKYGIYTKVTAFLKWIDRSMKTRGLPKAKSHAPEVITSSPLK
Experimental: 1) Method of measuring the time for blood coagulation with the human activated blood coagulation factor X:
The human activated blood coagulation factor X (Cosmo-Bio Co.) was dissolved in 0.05 M tris-HCl buffer (pH=7.40) to prepare its solution of 0.05 units/ml. Blood was collected in 3.8% sodium citrate to be 1/10 by volume, and centrifuged at 3,000 rpm for 10 minutes to separate human plasma therefrom. 90 μl of the thus-prepared human plasma, 10 μl of a test compound as diluted with physiological saline, and 50 μl of the solution of the activated blood coagulation factor X were kept warmed at 37° C. for 3 minutes, to which was added 100 μl of a solution of 20 mM CaCl2, and the time for blood coagulation in the system was measured.
To measure the coagulation time, used was Amelung's KC4A. The dose of the test compound for 2-time prolongation of the coagulation time (hereinafterreferred to as CT2) was calculated on the basis of the coagulation time for the control to which was added 10 μl of physiological saline with no test compound.

As for `CCOC(=O)CC(=O)N(Cc1ccc2ccc(C(=N)N)cc2c1)c1ccc(N2CCCN(C(C)=N)CC2)cc1` [Example 24, Ethyl N-[4-(4-acetimidoylhexahydro-1H-1,4-diazepin-1-yl)phenyl]-N-[(7-amidino-2-naphthyl)methyl]malonamate], the EC (2-fold clotting time) amounted to 0.152 µM.

In the case of `CC(=N)N1CCCN(c2ccc(N(Cc3ccc4ccc(C(=N)N)cc4c3)C(=O)CCC(=O)O)cc2)CC1` [Example 36, N-[4-(4-Acetimidoylhexahydro-1H-1,4-diazepin-1-yl)phenyl]-N-[(7-amidino-2-naphthyl)methyl] succinamic acid], the EC (2-fold clotting time) amounted to 0.069 µM. Consider `CC(=N)N1CCCN(c2ccc(N(Cc3ccc4ccc(C(=N)N)cc4c3)C(C)=O)cc2)CC1` [Example 17], for which the EC (2-fold clotting time) was 0.092 µM.

In the case of `CCOC(=O)CC(=O)N(Cc1ccc2ccc(C(=N)N)cc2c1)c1ccc(N2CCCN(C(C)=N)CC2)nc1` [Example 72], the EC (2-fold clotting time) is 0.119 µM. In the case of `CC(=N)N1CCCN(c2ccc(N(Cc3ccc4ccc(C(=N)N)cc4c3)C(=O)CCC(=O)O)cn2)CC1` [Example 84], the EC (2-fold clotting time) is 0.134 µM. The result for `CC(=N)N1CCCN(c2ccc(N(Cc3ccc4ccc(C(=N)N)cc4c3)S(=O)(=O)CC(=O)O)cc2)CC1` [Example 33, [N-[4-(4-acet-imidoylhexahydro-1H-1,4-diazepin-1-yl)phenyl]-N-[(7-amidino-2-naphthyl)methyl]sulfamoyl]acetic acid dihydro-chloride] reads 0.098 µM; that for `CC(=N)N1CCCN(c2ccc(N(Cc3ccc4ccc(C(=N)N)cc4c3)S(=O)(=O)CC(=O)O)cn2)CC1` [Example 32, [N-[6-(4-Acetimidoylhexahydro-1H-1,4-diazepin-1-yl)-3-pyridyl]-N-[(7-amidino-2-naphthyl)methyl]sulfamoyl]acetic acid], 0.089 µM; that for `CCOC(=O)CCC(=O)N(Cc1ccc2ccc(C(=N)N)cc2c1)c1ccc(N2CCCN(C(C)=N)CC2)nc1` [Example 73], 0.224 µM. `CCOC(=O)CS(=O)(=O)N(Cc1ccc2ccc(C(=N)N)cc2c1)c1ccc(N2CCCN(C(C)=N)CC2)cc1` [Example 22, ethyl [N-[4-(4-acetimidoylhexahydro-1H-1,4-diazepin-1-yl)phenyl]-N-[(7-amidino-2-naphthyl)methyl]-sulfamoyl]acetate dihydrochloride]: the EC (2-fold clotting time) was 0.111 µM. The result for `CC(=N)N1CCCN(c2ccc(N(Cc3ccc4ccc(C(=N)N)cc4c3)C(=S)NCC(=O)O)cc2)CC1` [Example 75, N-[4-(4-Acetimidoylhexahydro-1H-1,4-diazepin-1-yl)phenyl]-N-[(7-amidino-2-naphthyl)methyl]thioamido-acetic acid] reads 0.095 µM. With `CCOC(=O)CNS(=O)(=O)N(Cc1ccc2ccc(C(=N)N)cc2c1)c1ccc(N2CCCN(C(C)=N)CC2)cc1` [Example 23, Ethyl N-[N-[4-(4-acetimidoylhexahydro-1H-1,4-diazepin-1-yl)phenyl]-N-[(7-amidino-2-naphthyl)methyl]-sulfamoyl]glycinate], the EC (2-fold clotting time) was 0.11 µM.
